The numbers were not newly measured in patent US20040202640A1, “Method for topical treatment of scars with rotein Kinase C inhibitors” (priority 2003, published 2004), which cites them from elsewhere.

One data set deals with calmodulin (CaM) (Homo sapiens, UniProt P0DP23).
The test system of data set [1] is phorbol ester induced omithine decarboxylase activity. The following applies: mouse skin.

Consider `CCCCCCCCCCCCC/C=C/[C@@H](O)[C@@H](N)CO` [Sphingosine], for which, in the data set on PKC, the PKC inhibition result is listed as “dose-dependently inhibits PKC”. Moreover, the CaM function entry at calmodulin (CaM) is “inhibits CaM function”. Further, the “phorbol ester induced omithine decarboxylase activity” value in data set [1] was “inhibit”.
For `CCCCCCCCCCCCC/C=C/[C@@H](O)[C@@H](N)COP(=O)(O)O` [sphingosingosine-1-phosphate, sphingosine-1 phosphate], the PKC inhibition entry in the data set with PKC is listed as “more effective PKC inhibitor than sphingosine”.
